For one assay, the target named is T1, CK1α (Homo sapiens, UniProt P48729+Q96SW2).
T1 construct: CSNK1A1-HiBit KI HEK293(LgBit) Cells; host or cells: HEK293(LgBit) knock-in cells
Description: HiBiT degradation assay, CK1α, Procedure A. The assay is classed as cell-based. The following applies: six hours. The procedure, abridged: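 10-pt dose response, 10–0.005 μM, 0.1% DMSO; cells 1×10^6/ml in DMEM/10% FBS, 6 h, 37° C; HiBiT lytic detection, luminescence; DC50 + Ymin by 4-parameter fit.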
Background: HiBiT is a short tag that completes a luciferase, so light tracks the accessible tagged protein.

The next assay addresses GSPT1 (Homo sapiens, UniProt P15170+Q96SW2). In words: HiBiT degradation assay, GSPT1, Procedure B (Molt 4_hGSPT1_HiBIT cells). Set-up: Molt 4_hGSPT1_HiBIT N-terminus tagged cells were generated using CRISPR technology; endogenous in cells; host or cells: Molt 4 cells, CRISPR-edited. The conditions noted are these: six hours. Type of assay: cell-based. On the procedure:
Molt 4_hGSPT1_HiBIT N-terminus tagged cells were generated using CRISPR technology. Cells were maintained in RPMI media (Thermo Fisher Scientific, Catalog #11875-093) containing 10% Fetal Bovine Serum (Thermo Fisher Scientific, Catalog #16140071) 1% Penicillin-Streptomycin (Thermo Fisher Scientific, Catalog #25200056). Cells were maintained at 37° C. in a 5% CO2 environment.
Compounds were spotted onto Cornin 384-Well, Cell Culture-Treated, Flat-Bottom, Low Flange Microplate (Fisher Scientific, Catalog #07-201-013) using a Tecan D300e digital dispenser. Ten-point dose response curves spanning from 10 μM to 0.005 μM with a 0.1% DMSO tolerance were used.
Cells were centrifuged for 5 minutes at 1200 RPMs. Cell culture media was aspirated off and cells were resuspended with RPMI+10% FBS. Cell density was determined using a Denovix CellDrop BF cell counter. Cell density was adjusted to 1×10^6 cells/ml. 40 μl of cells was added to compound treated tissue culture plates and incubated for six hours at 37° C. After six hours, cell culture plates were removed from tissue culture incubator and cooled to room temperature. 40 μl of Nano-GloHiBiT Lytic Detection Reagent (Promega, Catalog #N3040) was added to each well. Plates were placed on an orbital shaker (600 rpm) for 20 minutes. Luminescence was measured using an Envsion plate reader (Perkin Elmer). IC50 curves and Ymin were generated using a 4-parameter curve fit with GraphPad Prism software (Prism Corporation).
Results from the HiBiT assay (DC50 (nM) and Ymin (% remaining)) are shown below. All CK1α data was generated according to Procedure A. GSPT1 data for Examples 1-600, 603-620 and 703-705 was generated according to Procedure A. GSPT1 data for Examples 601, 621-702 and 706-735 was generated according to Procedure B.

For orientation: DC50 means the concentration giving 50% degradation.

GSPT1, sequence (P15170 whole entry): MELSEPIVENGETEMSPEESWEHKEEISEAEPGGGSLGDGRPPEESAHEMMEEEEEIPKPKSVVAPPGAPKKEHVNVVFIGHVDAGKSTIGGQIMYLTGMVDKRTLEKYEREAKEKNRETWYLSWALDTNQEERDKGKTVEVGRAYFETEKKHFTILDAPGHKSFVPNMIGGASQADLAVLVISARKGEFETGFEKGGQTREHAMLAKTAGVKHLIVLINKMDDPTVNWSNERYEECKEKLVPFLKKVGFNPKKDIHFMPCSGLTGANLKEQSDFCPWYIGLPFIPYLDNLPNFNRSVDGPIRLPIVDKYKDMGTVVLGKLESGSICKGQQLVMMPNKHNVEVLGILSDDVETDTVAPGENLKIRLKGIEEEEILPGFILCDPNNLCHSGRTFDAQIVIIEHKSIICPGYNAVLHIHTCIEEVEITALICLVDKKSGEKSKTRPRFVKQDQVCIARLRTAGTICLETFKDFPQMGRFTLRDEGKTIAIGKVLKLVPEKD
GSPT1, sequence (Q96SW2 whole entry): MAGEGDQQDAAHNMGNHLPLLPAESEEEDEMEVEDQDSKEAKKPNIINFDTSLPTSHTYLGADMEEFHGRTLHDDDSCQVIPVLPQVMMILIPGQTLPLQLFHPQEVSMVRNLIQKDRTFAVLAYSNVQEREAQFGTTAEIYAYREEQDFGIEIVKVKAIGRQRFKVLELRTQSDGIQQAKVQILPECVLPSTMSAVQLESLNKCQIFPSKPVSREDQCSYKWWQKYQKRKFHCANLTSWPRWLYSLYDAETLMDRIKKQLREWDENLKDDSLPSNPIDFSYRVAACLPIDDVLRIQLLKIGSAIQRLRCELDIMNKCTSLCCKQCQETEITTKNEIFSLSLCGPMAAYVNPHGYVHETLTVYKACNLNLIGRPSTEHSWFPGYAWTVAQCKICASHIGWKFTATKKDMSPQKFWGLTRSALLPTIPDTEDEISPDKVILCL
GSPT1, sequence (Q16531 whole entry partner): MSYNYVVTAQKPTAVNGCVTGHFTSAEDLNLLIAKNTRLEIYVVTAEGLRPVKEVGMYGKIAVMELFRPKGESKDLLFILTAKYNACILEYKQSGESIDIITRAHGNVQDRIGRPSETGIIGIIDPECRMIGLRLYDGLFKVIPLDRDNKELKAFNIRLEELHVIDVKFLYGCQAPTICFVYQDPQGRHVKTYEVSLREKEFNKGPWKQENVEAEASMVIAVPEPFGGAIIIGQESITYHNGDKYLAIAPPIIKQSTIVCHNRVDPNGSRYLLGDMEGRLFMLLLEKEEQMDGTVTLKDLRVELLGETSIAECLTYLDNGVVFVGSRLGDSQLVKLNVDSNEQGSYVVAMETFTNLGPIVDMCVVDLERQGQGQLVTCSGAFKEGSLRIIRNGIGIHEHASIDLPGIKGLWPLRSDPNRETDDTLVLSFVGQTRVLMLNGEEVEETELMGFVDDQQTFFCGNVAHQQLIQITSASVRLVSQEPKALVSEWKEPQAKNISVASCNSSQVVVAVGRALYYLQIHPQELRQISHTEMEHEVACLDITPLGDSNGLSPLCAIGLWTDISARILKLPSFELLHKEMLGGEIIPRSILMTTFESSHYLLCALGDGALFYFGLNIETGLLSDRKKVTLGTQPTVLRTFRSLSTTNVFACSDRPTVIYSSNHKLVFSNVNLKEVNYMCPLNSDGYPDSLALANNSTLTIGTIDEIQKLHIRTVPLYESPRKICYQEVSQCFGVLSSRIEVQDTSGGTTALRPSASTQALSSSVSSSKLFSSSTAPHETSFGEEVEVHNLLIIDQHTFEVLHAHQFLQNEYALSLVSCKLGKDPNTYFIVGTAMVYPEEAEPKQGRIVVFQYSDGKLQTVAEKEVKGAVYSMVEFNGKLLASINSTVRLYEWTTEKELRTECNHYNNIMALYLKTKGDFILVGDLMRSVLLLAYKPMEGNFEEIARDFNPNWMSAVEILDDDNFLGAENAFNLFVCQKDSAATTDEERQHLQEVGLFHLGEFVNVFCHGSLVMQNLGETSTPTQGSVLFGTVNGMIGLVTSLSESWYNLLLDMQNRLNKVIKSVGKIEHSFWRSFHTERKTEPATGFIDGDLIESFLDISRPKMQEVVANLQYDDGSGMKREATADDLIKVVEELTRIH
T1 sequence (P48729 whole entry): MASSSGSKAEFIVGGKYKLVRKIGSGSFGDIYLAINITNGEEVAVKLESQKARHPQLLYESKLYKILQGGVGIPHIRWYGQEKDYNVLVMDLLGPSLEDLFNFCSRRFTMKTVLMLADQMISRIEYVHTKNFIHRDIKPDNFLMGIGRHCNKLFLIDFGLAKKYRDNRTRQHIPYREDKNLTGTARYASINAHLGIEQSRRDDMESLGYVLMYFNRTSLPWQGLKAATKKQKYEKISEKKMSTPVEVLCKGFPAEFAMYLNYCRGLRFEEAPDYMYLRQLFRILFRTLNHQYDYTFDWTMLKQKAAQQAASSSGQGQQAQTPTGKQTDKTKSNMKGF
T1 sequence (Q96SW2 whole entry): as the sequence (Q96SW2 whole entry) above
T1 sequence (Q16531 whole entry partner): as the sequence (Q16531 whole entry partner) above

On to `Cn1ncc(-c2ccc3c(c2)CN(C2CCC(=O)NC2=O)C3=O)c1C1=CCNCC1` (stereo not drawn) [Example 690], for which, at CK1α, the “CK1α Ymin” value was “E (E = >25-75% remaining)” and the DC50 was ≥ 25 nM. Further, at GSPT1, the 50% degradation concentration (DC50) is ≥ 25 nM and the “GSPT1 Ymin” value is on record as “F (F = >75-100% remaining)”.
With `Cn1cc(-c2ccc3c(c2)CN(C2CCC(=O)NC2=O)C3=O)nc1[C@H]1[C@@H]2COC[C@@H]21` (stereo partly drawn) [Example 716, 3-(5-(2-((1R,5S,6s)-3-oxabicyclo[3.1.0]hexan-6-yl)-1-methyl-1H-imidazol-4-yl)-1-oxoisoindolin-2-yl)piperidine-2,6-dione], on CK1α, the “CK1α Ymin” value is reported as “E (E = >25-75% remaining)” and the half-maximal degradation concentration (DC50) was < 25 nM. Moreover, at GSPT1, the DC50 is ≥ 25 nM and the “GSPT1 Ymin” value is “F (F = >75-100% remaining)”.
As for `COc1ccccc1-c1nc(-c2ccc3c(c2)CN(C2CCC(=O)NC2=O)C3=O)cn1C` (stereo not drawn) [Example 673], at CK1α, the “CK1α Ymin” value was “E (E = >25-75% remaining)” and the DC50 was < 25 nM. Also, on GSPT1, the DC50 was < 25 nM and the “GSPT1 Ymin” value was “F (F = >75-100% remaining)”.
Take `Cn1cc(-c2ccc3c(c2)CN(C2CCC(=O)NC2=O)C3=O)nc1-c1cccc2ccccc12` (stereo not drawn) [Example 676]: at CK1α, the “CK1α Ymin” value was “E (E = >25-75% remaining)” and the DC50 is < 25 nM. Moreover, on GSPT1, the 50% degradation concentration (DC50) was ≥ 25 nM and the “GSPT1 Ymin” value is listed as “F (F = >75-100% remaining)”.
The corresponding values for `Cn1cc(-c2ccc3c(c2)CN(C2CCC(=O)NC2=O)C3=O)nc1[C@H]1CC[C@H](C(F)(F)F)CC1` (stereo partly drawn) [Example 601, 3-(5-(1-methyl-2-((1r,4r)-4-(trifluoromethyl)cyclohexyl)-1H-imidazol-4-yl)-1-oxoisoindolin-2-yl)piperidine-2,6-dione] are “E (E = >25-75% remaining)”, ≥ 25 nM, ≥ 25 nM and “E (E = >25-75% remaining)”.
Take `Cn1cc(-c2ccc3c(c2)CN(C2CCC(=O)NC2=O)C3=O)nc1[C@H]1CC[C@H](C)CC1` (stereo partly drawn) [Example 715, 3-(5-(1-Methyl-2-((1r,4r)-4-methylcyclohexyl)-1H-imidazol-4-yl)-1-oxoisoindolin-2-yl)piperidine-2,6-dione]: on CK1α, the “CK1α Ymin” value is “D (D = >10- 25% remaining)” and the DC50 is < 25 nM. On GSPT1, the DC50 is < 25 nM and the “GSPT1 Ymin” value was “E (E = >25-75% remaining)”.
Turning to `Cn1cc(-c2ccc3c(c2)CN(C2CCC(=O)NC2=O)C3=O)nc1-c1ccc(C#N)cc1` (stereo not drawn) [Example 633], at CK1α, the “CK1α Ymin” value is listed as “D (D = >10- 25% remaining)” and the DC50 was < 25 nM. For the same compound, at GSPT1, the DC50 was < 25 nM and the “GSPT1 Ymin” value is “F (F = >75-100% remaining)”.
As to `Cn1cc(-c2ccc3c(c2)CN(C2CCC(=O)NC2=O)C3=O)nc1-c1cccc(O)c1` (stereo not drawn) [Example 642], on CK1α, the “CK1α Ymin” value is on record as “C (C = 0-10% remaining)” and the DC50 was ≥ 25 nM. At GSPT1, the DC50 is < 25 nM and the “GSPT1 Ymin” value was “E (E = >25-75% remaining)”.
`Cc1cccc(F)c1-c1nc(-c2ccc3c(c2)CN(C2CCC(=O)NC2=O)C3=O)cn1C` (stereo not drawn) [Example 651]: on CK1α, the “CK1α Ymin” value was “D (D = >10- 25% remaining)” and the DC50 was < 25 nM. On GSPT1, the DC50 was < 25 nM and the “GSPT1 Ymin” value is on record as “E (E = >25-75% remaining)”.
As to `Cn1cc(-c2ccc3c(c2)CN(C2CCC(=O)NC2=O)C3=O)nc1-c1ccc2ccccc2c1` (stereo not drawn) [Example 652], on CK1α, the “CK1α Ymin” value is reported as “D (D = >10- 25% remaining)” and the DC50 is < 25 nM. At GSPT1, the DC50 was < 25 nM and the “GSPT1 Ymin” value is recorded as “F (F = >75-100% remaining)”.
For `Cn1ncc(-c2ccc3c(c2)CN(C2CCC(=O)NC2=O)C3=O)c1C1=Cc2ccccc2CC1` (stereo not drawn) [Example 701], at CK1α, the “CK1α Ymin” value was “E (E = >25-75% remaining)” and the DC50 is ≥ 25 nM. At GSPT1, the half-maximal degradation concentration (DC50) was ≥ 25 nM and the “GSPT1 Ymin” value is listed as “F (F = >75-100% remaining)”.
As for `Cn1cc(-c2ccc3c(c2)CN(C2CCC(=O)NC2=O)C3=O)nc1C1(C)CCCCC1` (stereo not drawn) [Example 714, 3-(5-(1-methyl-2-(1-methylcyclohexyl)-1H-imidazol-4-yl)-1-oxoisoindolin-2-yl)piperidine-2,6-dione], at CK1α, the “CK1α Ymin” value was “E (E = >25-75% remaining)” and the DC50 is < 25 nM. Further, at GSPT1, the half-maximal degradation concentration (DC50) was < 25 nM and the “GSPT1 Ymin” value was “F (F = >75-100% remaining)”.
For the compound `Cn1cc(-c2ccc3c(c2)CN(C2CCC(=O)NC2=O)C3=O)nc1-c1ccc(F)c(Cl)c1` (stereo not drawn) [Example 645], at CK1α, the “CK1α Ymin” value was “D (D = >10- 25% remaining)” and the half-maximal degradation concentration (DC50) is < 25 nM. Besides, at GSPT1, the DC50 is ≥ 25 nM and the “GSPT1 Ymin” value is “F (F = >75-100% remaining)”.
The corresponding values for `Cn1cc(-c2ccc3c(c2)CN(C2CCC(=O)NC2=O)C3=O)nc1-c1cccc(F)c1F` (stereo not drawn) [Example 724] are “C (C = 0-10% remaining)”, < 25 nM, ≥ 25 nM and “F (F = >75-100% remaining)”.
Consider `Cn1cc2cc(-c3nc(-c4ccc5c(c4)CN(C4CCC(=O)NC4=O)C5=O)cn3C)ccc2n1` (stereo not drawn) [Example 682], for which, at CK1α, the “CK1α Ymin” value is listed as “C (C = 0-10% remaining)” and the DC50 is < 25 nM. In addition, on GSPT1, the half-maximal degradation concentration (DC50) was < 25 nM and the “GSPT1 Ymin” value is “F (F = >75-100% remaining)”.
Consider `COc1ccc(C#N)cc1-c1nc(-c2ccc3c(c2)CN(C2CCC(=O)NC2=O)C3=O)cn1C` (stereo not drawn) [Example 684], for which, on CK1α, the “CK1α Ymin” value is “E (E = >25-75% remaining)” and the DC50 is < 25 nM. In addition, at GSPT1, the 50% degradation concentration (DC50) is < 25 nM and the “GSPT1 Ymin” value was “F (F = >75-100% remaining)”.
Take `Cn1cc(-c2ccc3c(c2)CN(C2CCC(=O)NC2=O)C3=O)nc1-c1cc(F)ccc1Cl` (stereo not drawn) [Example 725]: at CK1α, the “CK1α Ymin” value is “C (C = 0-10% remaining)” and the DC50 was < 25 nM. For the same compound, at GSPT1, the half-maximal degradation concentration (DC50) was ≥ 25 nM and the “GSPT1 Ymin” value is “F (F = >75-100% remaining)”.
Take `Cn1nc(-c2ccc3c(c2)CN(C2CCC(=O)NC2=O)C3=O)nc1-c1ccc(F)cc1` (stereo not drawn) [Example 623, 3-(5-(5-(4-fluorophenyl)-1-methyl-1H-1,2,4-triazol-3-yl)-1-oxoisoindolin-2-yl)piperidine-2,6-dione]: at CK1α, the “CK1α Ymin” value is “D (D = >10- 25% remaining)” and the DC50 was < 25 nM. For the same compound, at GSPT1, the half-maximal degradation concentration (DC50) was < 25 nM and the “GSPT1 Ymin” value is “F (F = >75-100% remaining)”.
Consider `Cn1ncc(-c2ccc3c(c2)CN(C2CCC(=O)NC2=O)C3=O)c1C1CCOCC1` (stereo not drawn) [Example 694], for which, on CK1α, the “CK1α Ymin” value is reported as “E (E = >25-75% remaining)” and the 50% degradation concentration (DC50) was ≥ 25 nM. In addition, on GSPT1, the half-maximal degradation concentration (DC50) was ≥ 25 nM and the “GSPT1 Ymin” value is on record as “F (F = >75-100% remaining)”.
Turning to `Cc1ccc(-c2nc(-c3ccc4c(c3)CN(C3CCC(=O)NC3=O)C4=O)cn2C)c(F)c1` (stereo not drawn) [Example 670], on CK1α, the “CK1α Ymin” value is “E (E = >25-75% remaining)” and the DC50 is < 25 nM. Further, on GSPT1, the 50% degradation concentration (DC50) was ≥ 25 nM and the “GSPT1 Ymin” value was “F (F = >75-100% remaining)”.
Regarding `Cn1cc(-c2ccc3c(c2)CN(C2CCC(=O)NC2=O)C3=O)nc1-c1ccc(C#N)c(F)c1` (stereo not drawn) [Example 655], at CK1α, the “CK1α Ymin” value is reported as “E (E = >25-75% remaining)” and the half-maximal degradation concentration (DC50) is < 25 nM. In addition, at GSPT1, the DC50 was ≥ 25 nM and the “GSPT1 Ymin” value was “F (F = >75-100% remaining)”.
With `Cn1cc(-c2ccc3c(c2)CN(C2CCC(=O)NC2=O)C3=O)nc1-c1ccc(F)cc1Cl` (stereo not drawn) [Example 647], on CK1α, the “CK1α Ymin” value was “D (D = >10- 25% remaining)” and the DC50 was < 25 nM. In addition, on GSPT1, the DC50 is ≥ 25 nM and the “GSPT1 Ymin” value is “F (F = >75-100% remaining)”.
The corresponding values for `Cn1cc(-c2ccc3c(c2)CN(C2CCC(=O)NC2=O)C3=O)nc1-c1ccc(Cl)c(C(F)(F)F)c1` (stereo not drawn) [Example 667] are “E (E = >25-75% remaining)”, < 25 nM, < 25 nM and “F (F = >75-100% remaining)”.
In the case of `Cn1cc(-c2ccc3c(c2)CN(C2CCC(=O)NC2=O)C3=O)nc1-c1cccc(Cl)c1` (stereo not drawn) [Example 635], on CK1α, the “CK1α Ymin” value is on record as “C (C = 0-10% remaining)” and the DC50 was < 25 nM. For the same compound, on GSPT1, the half-maximal degradation concentration (DC50) is ≥ 25 nM and the “GSPT1 Ymin” value is “F (F = >75-100% remaining)”.
